Measured values: paper PMC9736281, “Flavonoid Constituents and Alpha-Glucosidase Inhibition of Solanum stramonifolium Jacq. Inflorescence with In Vitro and In Silico Studies” (Molecules, 2022)
Values after ≈ are worked out from the molar mass of the structure shown. Like-named read-outs stand apart in the source and are kept apart here.

How the values were obtained:
[1] = test system: alpha-glucosidase enzyme; test: Alpha-glucosidase inhibitory activity, enzymatic assay with pNPG; type: biochemical, Saccharomyces cerevisiae; details: for IC50: purchased standards, DMSO co-solvent not more than 5%
Description: All extracts and isolated compounds were examined for their alpha-glucosidase inhibitory activity according to Dej-adisai and Pitakput, 2015 [23]. Briefly, 0.01 M phosphate buffer (50 μL), samples or standard solution (50 μL), and alpha-glucosidase enzyme solution (50 μL) were added to the well plate. The mixture solution was incubated at 37 °C for 2 min. Next, para-nitrophenyl-α-D-glucopyranoside solution (50 μL) was added. The enzymatic inhibition was evaluated from the yellow final product, p-nitrophenol (pNP). The color of the reaction was detected by visible light at 405 nm of SPECTROstar Nano spectrophotometer (BMG Labtech, Ortenberg, Germany). The product absorption was converted to velocity (V) by using Equation (1). Then, the velocity was used to calculated the percentage of inhibition by Equation (2). Furthermore, the ability of sample was performed by IC50 value, which was generated from the calibration curve of percentages of inhibition at five different sample concentrations. Velocity = ∆ Absorbance at 405 nm/∆ Time(1) % Inhibition = [(Vcontrol − Vsample)/Vcontrol] × 100(2)

[2] = test system: alpha-glucosidase enzyme; test: Enzyme kinetic study (Lineweaver-Burk plot, secondary plot); type: biochemical, Saccharomyces cerevisieae
Description: To determine the mode of inhibition, the enzyme kinetic procedure was performed as described by Sakulkeo et al.. The double reciprocal Lineweaver–Burk plot was constructed and used for the mode of action determination. The inhibition constant (Ki) was conducted from the secondary plot. Briefly, the 5 concentrations of substrate pNPG (2.5–0.125 mM), the enzyme from Saccharomyces cerevisieae (EC 3.2.1.20) at 1 unit/mL, and 3 concentrations of sample were tested in triplicate.

[3] = test system: alpha-glucosidase enzyme; details: cited from earlier work

O=c1c(O)c(-c2ccc(O)cc2)oc2cc(O)cc(O)c12 [Compound 3, kaempferol]
% Inhibition at 400 μg/mL ([1]; alpha-glucosidase): 13.01 ± 2.69% | IC50 [1]: 585.63 µg/mL (≈ 2050 µM) | Inhibition Type ([2]; listed as Kaempferol): Mixed | Inhibition Type ([2]; listed as kaempferol): mixed-type | Inhibition Type ([3]; ref [13],[14]): mixed-type | Inhibition Type ([3]; ref [15]): non-competitive

O=c1c(OC2O[C@H](CO)[C@@H](O)[C@H](O)[C@H]2O)c(-c2ccc(O)cc2)oc2cc(O)cc(O)c12 (stereo partly drawn) [Compound 6b, kaempferol 3-O-glucopyranoside]
IC50 [1]: >600 µg/mL | Inhibition Type ([2]; listed as Astragalin): Mixed | Inhibition Type ([2]; listed as astragalin): mixed-type | Inhibition Type ([3]; ref [16]): non-competitive

COc1cc(O)c2c(=O)c(OC)c(-c3cc(OC)c(OC)c(OC)c3)oc2c1 [Compound 2, 5-hydroxy-3,7,3′,4′,5′-pentamethoxyflavone]
% Inhibition at 400 μg/mL ([1]; alpha-glucosidase): 8.51 ± 3.79%

COc1cc(O)c2c(=O)c(OC)c(-c3cc(OC)c(OC)c(OC4OC(CO)C(O)C(O)C4O)c3)oc2c1 (stereo not drawn) [Compound 5, 5-hydroxy 3-7-4′-5′-tetramethoxyflavone-3′-O-glucopyranoside]
% Inhibition at 200 μg/mL ([1]; alpha-glucosidase): 0.84 ± 0.21%

COc1cc(O)c2c(=O)c(OC)c(-c3cc(O)c(OC)c(OC)c3)oc2c1 [Compound 1, myricetin 3, 4′, 5′, 7-tetramethyl ether]
% Inhibition at 400 μg/mL ([1]; alpha-glucosidase): 12.78 ± 4.89%

O=c1c(O)c(-c2ccc(O)cc2)oc2cc(O[C@@H]3O[C@H](CO)[C@@H](O)[C@H](O)[C@H]3O)cc(O)c12 [Compound 4, kaempferol 7-O-β-glucopyranoside]
% Inhibition at 400 μg/mL ([1]; alpha-glucosidase): 7.68 ± 0.33%

C[C@H]1O[C@H](O[C@H]2[C@H](O)[C@@H](O)[C@@H](O[C@H]3[C@H](O)[C@@H](O)C(O)O[C@@H]3CO)O[C@@H]2CO)[C@H](O)[C@@H](O)[C@@H]1N[C@H]1C=C(CO)[C@@H](O)[C@H](O)[C@H]1O (stereo partly drawn) [Acarbose, acarbose, reference compound]
% Inhibition at 200 μg/mL ([1]; alpha-glucosidase): 45.27 ± 4.5% | % Inhibition at 400 μg/mL ([1]; alpha-glucosidase): 60.78 ± 3.61% | % Inhibition at 2 mg/mL ([1]; alpha-glucosidase, sample at 2 mg/mL): 76.44 ± 3.06% | Inhibition Type [2]: Competitive
